In patent EP1832576A1, “4-Biarylyl-1-phenolyzetidin-2-ones” (Microbia Inc., priority 2003, dated 2005):

Test system: cholesterol absorption from the intestine
Test: In Vivo Assay of Hypolipidemic Agents using the Rat Cholesterol Absorption Model
Set-up: species or system Female Sprague-Dawley rats
Conditions: 1 mg/kg, 3H levels in serum three hours after 3H-cholesterol, versus vehicle only control; for inhibition at 1 mg/kg: po
Procedure, shortened: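 Fasted female Sprague-Dawley rats (150–250 g, 4–6/group) received compound orally in olive oil or vehicle. Thirty minutes later they were given 3–5 µCi ^3H-cholesterol orally in olive oil, and serum ^3H was counted at 3 h. Percent inhibition versus vehicle control is at a fixed dose; ED50 is the dose giving half-maximal effect on serum ^3H.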

Row | Structure (SMILES) | inhibition at 1 mg/kg (Table 1, perorally) | also measured
1 | CCCOc1cccc(-c2ccc([C@@H]3[C@@H](CC[C@H](O)c4ccc(F)cc4)C(=O)N3c3ccc(F)cc3)cc2)c1 [Example 103, (3R,4S)-1-(4-fluorophenyl)-3-[(3S)-3-(4-fluorophenyl)-3-hydroxypropyl]-4-(3'-propoxybiphenyl-4-yl)azetidin-2-one] | 21% | –
2 | O=Cc1ccc(O)cc1-c1ccc([C@@H]2[C@@H](CC[C@H](O)c3ccc(F)cc3)C(=O)N2c2ccc(F)cc2)cc1 [Example 104, 4'-{(2S,3R)-1-(4-fluorophenyl)-3-[(3S)-3-(4-fluorophenyl)-3-hydroxypropyl]-4-oxoazetidin-2-yl}-5-hydroxybiphenyl-2-carbaldehyde] | 52% | –
3 | CC(C)Oc1cccc(-c2ccc([C@@H]3[C@@H](CC[C@H](O)c4ccc(F)cc4)C(=O)N3c3ccc(F)cc3)cc2)c1 [Example 105, (3R,4S)-1-(4-fluorophenyl)-3-[(3S)-3-(4-fluorophenyl)-3-hydroxypropyl]-4-(3'-isopropoxybiphenyl-4-yl)azetidin-2-one] | 15% | –
4 | O=C(O)c1cc(-c2ccc([C@@H]3[C@@H](CC[C@H](O)c4ccc(F)cc4)C(=O)N3c3ccc(F)cc3)cc2)ccc1O [Example 106, 4'-{(2S,3R)-1-(4-fluorophenyl)-3-[(3S)-3-(4-fluorophenyl)-3-hydroxypropyl]-4-oxoazetidin-2-yl}-4-hydroxybiphenyl-3-carboxylic acid] | 66% | –
5 | COc1cc(OC)cc(-c2ccc([C@@H]3[C@@H](CC[C@H](O)c4ccc(F)cc4)C(=O)N3c3ccc(F)cc3)cc2)c1 [Example 107, (3R,4S)-4-(3',5'-dimethoxybiphenyl-4-yl)-1-(4-fluorophenyl)-3-[(3S)-3-(4-fluorophenyl)-3-hydroxypropyl]azetidin-2-one] | 49% | –
6 | O=C1[C@H](CC[C@H](O)c2ccc(F)cc2)[C@@H](c2ccc(-c3ccc(O)cc3O)cc2)N1c1ccc(F)cc1 [Example 108, (3R,4S)-4-(2',4'-dihydroxybiphenyl-4-yl)-1-(4-fluorophenyl)-3-[(3S)-3-(4-fluorophenyl)-3-hydroxypropyl]azetidin-2-one] | 69% | –
7 | CCCCOc1cccc(-c2ccc([C@@H]3[C@@H](CC[C@H](O)c4ccc(F)cc4)C(=O)N3c3ccc(F)cc3)cc2)c1 [Example 109, (3R,4S)-4-(3'-butoxybiphenyl-4-yl)-1-(4-fluorophenyl)-3-[(3S)-3-(4-fluorophenyl)-3-hydroxypropyl]azetidin-2-one] | 52% | –
8 | O=C(O)c1ccc(-c2ccc([C@@H]3[C@@H](CC[C@H](O)c4ccc(F)cc4)C(=O)N3c3ccc(F)cc3)cc2)cc1O [Example 110, 4'-{(2S,3R)-1-(4-fluorophenyl)-3-[(3S)-3-(4-fluorophenyl)-3-hydroxypropyl]-4-oxoazetidin-2-yl}-3-hydroxybiphenyl-4-carboxylic acid] | 72% | –
9 | COc1cc(F)cc(-c2ccc([C@@H]3[C@@H](CC[C@H](O)c4ccc(F)cc4)C(=O)N3c3ccc(F)cc3)cc2)c1 [Example 111, (3R,4S)-4-(3'-fluoro-5'-methoxybiphenyl-4-yl)-1-(4-fluorophenyl)-3-[(3S)-3-(4-fluorophenyl)-3-hydroxypropyl]azetidin-2-one] | 72% | –
10 | O=C1[C@H](CC[C@H](O)c2ccc(F)cc2)[C@@H](c2ccc(-c3cc(O)cc(F)c3)cc2)N1c1ccc(F)cc1 [Example 112, (3R,4S)-4-(3'-fluoro-5'-hydroxybiphenyl-4-yl)-1-(4-fluorophenyl)-3-[(3S)-3-(4-fluorophenyl)-3-hydroxypropyl]azetidin-2-one] | 75% | –
11 | O=C1[C@H](CC[C@H](O)c2ccc(F)cc2)[C@@H](c2ccc(-c3cccc([C@@H]4O[C@@H](CO)[C@H](O)[C@@H](O)[C@@H]4O)c3)cc2)N1c1ccc(F)cc1 [Example 113, (1S)-1,5-anhydro-1-(4'-{(2S,3R)-1-(4-fluorophenyl)-3-[(3S)-3-(4-fluorophenyl)-3-hydroxypropyl]-4-oxoazetidin-2-yl}biphenyl-3-yl)-L-glucitol] | 67% | –
12 | O=C1[C@H](CC[C@H](O)c2ccc(F)cc2)[C@@H](c2ccc(-c3cc(O)cc(O)c3)cc2)N1c1ccc(F)cc1 [Example 114, (3R,4S)-4-(3',5'-dihydroxybiphenyl-4-yl)-1-(4-fluorophenyl)-3-[(3S)-3-(4-fluorophenyl)-3-hydroxypropyl]azetidin-2-one] | 72% | –
13 | O=C1[C@H](CC[C@H](O)c2ccc(F)cc2)[C@@H](c2ccc(-c3cccc(B(O)O)c3)cc2)N1c1ccc(F)cc1 [Example 115, (4'-{(2S,3R)-1-(4-fluorophenyl)-3-[(3S)-3-(4-fluorophenyl)-3-hydroxypropyl]-4-oxoazetidin-2-yl}biphenyl-3-yl)boronic acid] | 70% | –
14 | O=C1[C@H](CC[C@H](O)c2ccc(F)cc2)[C@@H](c2ccc(-c3ccc([C@H]4O[C@@H](CO)[C@H](O)[C@@H](O)[C@@H]4O)cc3)cc2)N1c1ccc(F)cc1 [Example 116, (1R)-1,5-anhydro-1-(4'-{(2S,3R)-1-(4-fluorophenyl)-3-[(3S)-3-(4-fluorophenyl)-3-hydroxypropyl]-4-oxoazetidin-2-yl}biphenyl-4-yl)-L-glucitol] | 81% | –
15 | O=C1[C@H](CC[C@H](O)c2ccc(F)cc2)[C@@H](c2ccc(-c3cccc(C[C@@H]4O[C@H](CO)[C@@H](O)[C@H](O)[C@H]4O)c3)cc2)N1c1ccc(F)cc1 [Example 117, 2,6-anhydro-1-deoxy-1-(4'-{(2S,3R)-1-(4-fluorophenyl)-3-[(3S)-3-(4-fluorophenyl)-3-hydroxypropyl]-4-oxoazetidin-2-yl}biphenyl-3-yl)-D-glycero-D-gulo-heptitol] | 26% | –
16 | O=C1[C@H](CC[C@H](O)c2ccc(F)cc2)[C@@H](c2ccc(-c3cccc(S(=O)(=O)O)c3)cc2)N1c1ccc(F)cc1 [Example 118, 4'-{(2S,3R)-1-(4-fluorophenyl)-3-[(3S)-3-(4-fluorophenyl)-3-hydroxypropyl]-4-oxoazetidin-2-yl}biphenyl-3-sulfonic acid] | 61% | –
17 | O=C1[C@H](CC[C@H](O)c2ccc(F)cc2)[C@@H](c2ccc(-c3cccc(S)c3)cc2)N1c1ccc(F)cc1 [Example 119, (3R,4S)-1-(4-fluorophenyl)-3-[(3S)-3-(4-fluorophenyl)-3-hydroxypropyl]-4-(3'-mercaptobiphenyl-4-yl)azetidin-2-one] | 56% | –
18 | C[N+](C)(C)c1cccc(-c2ccc([C@@H]3[C@@H](CC[C@H](O)c4ccc(F)cc4)C(=O)N3c3ccc(F)cc3)cc2)c1 [Example 120, 4'-{(2S,3R)-1-(4-fluorophenyl)-3-[(3S)-3-(4-fluorophenyl)-3-hydroxypropyl]-4-oxoazetidin-2-yl}-N,N,N-trimethylbiphenyl-3-aminium] | 23% | –
19 | O=C1[C@H](CC[C@H](O)c2ccc(F)cc2)[C@@H](c2ccc(-c3cccc(O)c3)cc2O)N1c1ccc(F)cc1 [Example 121, (3R,4S)-4-(3,3'-dihydroxybiphenyl-4-yl)-1-(4-fluorophenyl)-3-[(3S)-3-(4-fluorophenyl)-3-hydroxypropyl]azetidin-2-one] | – | inhibition at 1 mg/kg (Table 2, perorally): 72%
20 | O=C1[C@H](CC[C@H](O)c2ccc(F)cc2)[C@@H](c2ccc(-c3cccc(P(=O)(O)O)c3)cc2)N1c1ccccc1 [Example 122, (4'-{(2S,3R)-3-[(3S)-3-(4-fIuorophenyI)-3-hydroxypropyl]-4-oxo-1-phenylazetidin-2-yl}biphenyl-3-yl)phosphonic acid] | – | % inhibition at 1 mg/kg (Table 2, perorally): 67%
21 | CS(=O)(=O)c1cccc(-c2ccc([C@@H]3[C@@H](CC[C@H](O)c4ccc(F)cc4)C(=O)N3c3ccccc3)c(O)c2)c1 [Example 123, (3R,4S)-3-[(3S)-3-(4-fluorophenyl)-3-hydroxypropyl]-4-[3-hydroxy-3'-(methylsulfonyl)biphenyl-4-yl]-1-phenylazetidin-2-one] | – | inhibition at 1 mg/kg (Table 2, perorally): 72%
22 | O=C1[C@H](CC[C@H](O)c2ccc(F)cc2)[C@@H](c2ccc(-c3cccc(O)c3)cc2)N1c1ccc(-c2ccccc2)cc1 [Example 124, (3R,4S)-1-biphenyl-4-yl-3-[(3S)-3-(4-fluorophenyl)-3-hydroxypropyl]-4-(3'-hydroxybiphenyl-4-yl)azetidin-2-one] | – | inhibition at 1 mg/kg (Table 2, perorally): 48%
23 | O=C1[C@H](CC[C@H](O)c2ccc(F)cc2)[C@@H](c2ccc(-c3ccc(O)cc3)cc2O)N1c1ccccc1 [Example 125, (3R,4S)-4-(3,4'-dihydroxybiphenyl-4-yl)-3-[(3S)-3-(4-fluorophenyl)-3-hydroxypropyl]-1-phenylazetidin-2-one] | – | inhibition at 1 mg/kg (Table 2, perorally): 64%
24 | O=C1[C@H](CC[C@H](O)c2ccc(F)cc2)[C@@H](c2ccc(-c3ccc(P(=O)(O)O)cc3)cc2O)N1c1ccccc1 [Example 127, (4'-{(2S,3R)-3-[(3S)-3-(4-Fluorophenyl)-3-hydroxypropyl]-4-oxo-1-phenylazetidin-2-yl}-3'-hydroxybiphenyl-4-yl)phosphonic acid] | – | inhibition at 1 mg/kg (Table 2, perorally): 58%
25 | O=C1[C@H](CC[C@H](O)c2ccc(F)cc2)[C@@H](c2ccc(-c3ccc(S(=O)(=O)O)cc3)cc2O)N1c1ccccc1 [Example 128, Sodium 4'-{(2S,3R)-3-[(3S)-3-(4-fluorophenyl)-3-hydroxypropyl]-4-oxo-1-phenylazetidin-2-yl}-3'-hydroxybiphenyl-4-sulfonate] | – | inhibition at 1 mg/kg (Table 2, perorally): 60%
